The target of this assay is T1, AxNiR (Achromobacter xylosoxidans, UniProt O68601).
T1 construct: gene nir; two-domain copper nitrite reductase, homotrimer
The experiment in a line: continuous-wave EPR of T2Cu; cryoreduction-EPR with annealing. Type of assay: binding. Particulars: oxidized enzyme; T2Cu active site; EPR at 20 K.

The structures appear in SMILES notation.

T1 sequence (O68601 entry or part of it): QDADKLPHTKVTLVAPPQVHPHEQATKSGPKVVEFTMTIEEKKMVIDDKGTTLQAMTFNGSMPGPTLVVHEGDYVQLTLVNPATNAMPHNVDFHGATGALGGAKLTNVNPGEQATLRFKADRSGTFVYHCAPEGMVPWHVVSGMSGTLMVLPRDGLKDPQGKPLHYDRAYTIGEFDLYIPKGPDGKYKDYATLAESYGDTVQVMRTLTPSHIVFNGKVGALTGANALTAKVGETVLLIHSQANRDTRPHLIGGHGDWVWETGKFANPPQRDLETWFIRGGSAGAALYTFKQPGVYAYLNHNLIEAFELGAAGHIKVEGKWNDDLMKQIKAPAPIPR

`O=NO` [nitrite]: the “continuous-wave EPR of T2Cu; cryoreduction-EPR with annealing” value is given as “This is indicative of the nitrite being bound to the catalytic T2Cu site”.
